Measured values: PubChem BioAssay AID256 (DTP/NCI, 2004)
Where “and” joins values, the source holds several entries; their conditions need not be identical. Equal values may be shown once. Inconclusive results and toxic doses are left out. How the source made its calls: active means survival T/C of 150% or more; inactive means T/C below 125% in these data.

Tested on: CD2F1 mice, L1210 leukemia ip, survival T/C
Assay: NCI In Vivo Anticancer Drug Screen. Data for tumor model L1210 Leukemia (intraperitoneal) in CD2F1 (CDF1) mice
Details: higher = longer survival
Procedure, shortened: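 Mice carrying a transplanted tumor received test compound or vehicle alone. The value is the measurement in the treated group divided by that in the vehicle-treated control group.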

[1] = endpoint: mean survival time, dose: 100.0 mg/kg/injection, schedule: Q01DX001 (ip), vehicle: saline
[2] = endpoint: mean survival time, dose: 100.0 mg/kg/injection, schedule: Q04DX003 (ip), vehicle: saline with Tween-80
[3] = endpoint: mean survival time, dose: 200.0 mg/kg/injection, schedule: Q04DX003 (ip), vehicle: saline with Tween-80
[4] = endpoint: mean survival time, dose: 400.0 mg/kg/injection, schedule: Q04DX003 (ip), vehicle: saline with Tween-80
[5] = endpoint: mean survival time, dose: 12.5 mg/kg/injection, schedule: Q01DX009 (ip), vehicle: saline with Tween-80
[6] = endpoint: mean survival time, dose: 25.0 mg/kg/injection, schedule: Q01DX009 (ip), vehicle: saline with Tween-80
[7] = endpoint: mean survival time, dose: 50.0 mg/kg/injection, schedule: Q01DX009 (ip), vehicle: saline with Tween-80
[8] = endpoint: mean survival time, dose: 100.0 mg/kg/injection, schedule: Q01DX009 (ip), vehicle: saline with Tween-80
[9] = endpoint: mean survival time, dose: 200.0 mg/kg/injection, schedule: Q01DX009 (ip), vehicle: saline with Tween-80
[10] = endpoint: mean survival time, dose: 400.0 mg/kg/injection, schedule: Q01DX009 (ip), vehicle: saline with Tween-80
[11] = endpoint: mean survival time, dose: 100.0 mg/kg/injection, schedule: Q04DX003 (ip), vehicle: Klucel (hydroxypropylcellulose) (HPC)
[12] = endpoint: mean survival time, dose: 200.0 mg/kg/injection, schedule: Q04DX003 (ip), vehicle: Klucel (hydroxypropylcellulose) (HPC)
[13] = endpoint: mean survival time, dose: 400.0 mg/kg/injection, schedule: Q04DX003 (ip), vehicle: Klucel (hydroxypropylcellulose) (HPC)

Measured: T/C

Cc1cc(C)c(S(=O)(=O)c2ccc(F)cc2)c(C)c1
inactive: [1] 100 % of control | endpoint: mean survival time, dose: 100.0 mg/kg/injection, schedule: Q04DX003 (ip), vehicle: saline 101 % of control | endpoint: mean survival time, dose: 200.0 mg/kg/injection, schedule: Q01DX001 (ip), vehicle: saline 102 % of control | endpoint: mean survival time, dose: 200.0 mg/kg/injection, schedule: Q04DX003 (ip), vehicle: saline 102 % of control | endpoint: mean survival time, dose: 400.0 mg/kg/injection, schedule: Q01DX001 (ip), vehicle: saline 100 % of control | endpoint: mean survival time, dose: 400.0 mg/kg/injection, schedule: Q04DX003 (ip), vehicle: saline 96 % of control

S=c1[nH]c2ccccc2nc1NCc1ccccc1
inactive: endpoint: mean survival time, dose: 100.0 mg/kg/injection, schedule: Q04DX003 (ip), vehicle: other 91 % of control | endpoint: mean survival time, dose: 200.0 mg/kg/injection, schedule: Q04DX003 (ip), vehicle: other 93 % of control | endpoint: mean survival time, dose: 400.0 mg/kg/injection, schedule: Q04DX003 (ip), vehicle: other 93 % of control

N#CC1CC(c2cccs2)Nc2ccccc2N1 (stereo not drawn)
inactive: [2] 94 % of control | [3] 90 % of control | [4] 100 % of control

CC(NCCN1CC1)C1CC1 (stereo not drawn)
inactive: endpoint: mean survival time, dose: 17.6 mg/kg/injection, schedule: Q01DX009 (ip), vehicle: saline 94 % of control | endpoint: mean survival time, dose: 26.4 mg/kg/injection, schedule: Q01DX009 (ip), vehicle: saline 100 % of control | endpoint: mean survival time, dose: 40.0 mg/kg/injection, schedule: Q01DX009 (ip), vehicle: saline 105 % of control | endpoint: mean survival time, dose: 60.0 mg/kg/injection, schedule: Q01DX009 (ip), vehicle: saline 117 % of control

O=C1OC(=O)C2C1OC1C(=O)OC(=O)C12 (stereo not drawn)
inactive: endpoint: mean survival time, dose: 6.25 mg/kg/injection, schedule: Q04DX002 (ip), vehicle: saline 103 % of control | endpoint: mean survival time, dose: 12.5 mg/kg/injection, schedule: Q04DX002 (ip), vehicle: saline 106 % of control | endpoint: mean survival time, dose: 25.0 mg/kg/injection, schedule: Q04DX002 (ip), vehicle: saline 95 % of control

ClC(Cl)(Cl)C1=NCc2nnn(Cc3ccccc3)c2N1
inactive: [5] 100 % of control | [6] 92 % of control | [7] 105 % of control | [8] 100 % of control | [9] 107 % of control | [10] 94 % of control

CC(=O)N(C)c1ccc(C)cc1C
inactive: [8] 93 % of control | [9] 96 % of control | [10] 98 % of control

Cc1c(N)nc([C@H](CC(N)=O)NC[C@H](N)C(N)=O)nc1C(=O)N[C@H](C(=O)N[C@H](C)[C@@H](O)CC(=O)N[C@H](C(=O)NC(O[C@@H]1O[C@@H](C)[C@@H](N)[C@@H](O)[C@H]1O)C(O)c1nc(-c2nc(C(=O)NCCCCN)cs2)cs1)[C@@H](C)O)[C@@H](O[C@@H]1O[C@@H](CO)[C@@H](O)[C@H](O)[C@@H]1O[C@H]1O[C@H](CO)[C@@H](O)[C@H](OC(N)=O)[C@@H]1O)c1c[nH]cn1 (stereo partly drawn)
inactive: endpoint: median survival time, dose: 1.0 mg/kg/injection, schedule: Q01DX009 (ip), vehicle: saline 106 % of control | endpoint: median survival time, dose: 2.0 mg/kg/injection, schedule: Q01DX009 (ip), vehicle: saline 112 % of control | endpoint: median survival time, dose: 4.0 mg/kg/injection, schedule: Q01DX009 (ip), vehicle: saline 119 % of control | endpoint: median survival time, dose: 8.0 mg/kg/injection, schedule: Q01DX009 (ip), vehicle: saline 118 % of control | endpoint: median survival time, dose: 16.0 mg/kg/injection, schedule: Q01DX009 (ip), vehicle: saline 120 % of control | endpoint: median survival time, dose: 32.0 mg/kg/injection, schedule: Q01DX009 (ip), vehicle: saline 108 % of control

COc1cc(CNC(=O)CCCC2CCC2)ccc1O
inactive: endpoint: mean survival time, dose: 3.13 mg/kg/injection, schedule: Q01DX009 (ip), vehicle: saline with Tween-80 96 % of control | endpoint: mean survival time, dose: 6.25 mg/kg/injection, schedule: Q01DX009 (ip), vehicle: saline with Tween-80 94 % of control and 97 % of control | endpoint: mean survival time, dose: 6.25 mg/kg/injection, schedule: Q04DX003 (ip), vehicle: saline with Tween-80 96 % of control | [5] 86 % of control and 97 % of control | endpoint: mean survival time, dose: 12.5 mg/kg/injection, schedule: Q04DX003 (ip), vehicle: saline with Tween-80 101 % of control | [6] 100 % of control | endpoint: mean survival time, dose: 25.0 mg/kg/injection, schedule: Q04DX003 (ip), vehicle: saline with Tween-80 95 % of control

CC(=O)C(C(c1ccccc1)N1CCCc2ccccc21)N1CCOCC1 (stereo not drawn)
inactive: [11] 98 % of control | [12] 101 % of control | [13] 108 % of control

O=C1C=C(O)c2ccccc2C1=O
inactive: endpoint: mean survival time, dose: 25.0 mg/kg/injection, schedule: Q01DX001 (ip), vehicle: saline 106 % of control | endpoint: mean survival time, dose: 50.0 mg/kg/injection, schedule: Q01DX001 (ip), vehicle: saline 106 % of control | [1] 102 % of control

CCCCCCN(CCCCCC)CC(O)c1cccc2c1cc(Cl)c1ccccc12 (stereo not drawn)
inactive: [7] 96 % of control | [8] 100 % of control | [2] 95 % of control | [9] 98 % of control | [3] 101 % of control

COc1ccc2c(O)c3[n+](cc2c1OC)CCc1cc2c(cc1-3)OCO2
inactive: endpoint: mean survival time, dose: 75.0 mg/kg/injection, schedule: Q01DX001 (ip), vehicle: other 100 % of control | endpoint: mean survival time, dose: 150.0 mg/kg/injection, schedule: Q01DX001 (ip), vehicle: other 87 % of control | endpoint: mean survival time, dose: 300.0 mg/kg/injection, schedule: Q01DX001 (ip), vehicle: other 100 % of control

COC(=O)C(NC(=O)Cc1ccccc1)C(C)(C)S (stereo not drawn)
inactive: endpoint: mean survival time, dose: 100.0 mg/kg/injection, schedule: Q04DX002 (ip), vehicle: saline with Tween-80 102 % of control | endpoint: mean survival time, dose: 200.0 mg/kg/injection, schedule: Q04DX002 (ip), vehicle: saline with Tween-80 102 % of control | endpoint: mean survival time, dose: 400.0 mg/kg/injection, schedule: Q04DX002 (ip), vehicle: saline with Tween-80 102 % of control

O=C(/C=C(\C(=O)c1ccccc1)c1ccccc1)c1ccccc1
inactive: [7] 95 % of control | endpoint: mean survival time, dose: 50.0 mg/kg/injection, schedule: Q04DX003 (ip), vehicle: saline with Tween-80 92 % of control | [8] 96 % of control | [2] 87 % of control | [9] 101 % of control | [3] 87 % of control

CC1=NC(c2ccccn2)=NNC(c2ccccn2)=C1c1ccccc1
inactive: endpoint: mean survival time, dose: 12.5 mg/kg/injection, schedule: Q01DX009 (ip), vehicle: water 98 % of control | endpoint: mean survival time, dose: 25.0 mg/kg/injection, schedule: Q01DX009 (ip), vehicle: water 96 % of control | endpoint: mean survival time, dose: 50.0 mg/kg/injection, schedule: Q01DX009 (ip), vehicle: water 98 % of control | endpoint: mean survival time, dose: 100.0 mg/kg/injection, schedule: Q01DX009 (ip), vehicle: water 86 % of control | endpoint: mean survival time, dose: 200.0 mg/kg/injection, schedule: Q01DX009 (ip), vehicle: water 90 % of control

C/C(=N/NC(=O)c1ccccc1)c1ccccc1O
inactive: endpoint: mean survival time, dose: 100.0 mg/kg/injection, schedule: Q01DX009 (ip), vehicle: Klucel (hydroxypropylcellulose) (HPC) 92 % of control | [11] 97 % of control | endpoint: mean survival time, dose: 200.0 mg/kg/injection, schedule: Q01DX009 (ip), vehicle: Klucel (hydroxypropylcellulose) (HPC) 94 % of control | [12] 100 % of control | endpoint: mean survival time, dose: 400.0 mg/kg/injection, schedule: Q01DX009 (ip), vehicle: Klucel (hydroxypropylcellulose) (HPC) 94 % of control | [13] 96 % of control

O=Cc1[nH]c(=S)[nH]c(=O)c1Cc1cccc2ccccc12
inactive: [2] 96 % of control | [3] 95 % of control | [4] 102 % of control

O=C(Nc1ccc(S(=O)(=O)N2CCCCC2)cc1)Oc1ccc([N+](=O)[O-])cc1
inactive: endpoint: mean survival time, dose: 5.0 mg/kg/injection, schedule: Q01DX001 (ip), vehicle: other 97 % of control | endpoint: mean survival time, dose: 10.0 mg/kg/injection, schedule: Q01DX001 (ip), vehicle: other 108 % of control | endpoint: mean survival time, dose: 20.0 mg/kg/injection, schedule: Q01DX001 (ip), vehicle: other 100 % of control | endpoint: mean survival time, dose: 40.0 mg/kg/injection, schedule: Q01DX001 (ip), vehicle: other 100 % of control | endpoint: mean survival time, dose: 80.0 mg/kg/injection, schedule: Q01DX001 (ip), vehicle: other 96 % of control
